Tests used:
[1] = target: T1, human α1G T-type channels (Homo sapiens, UniProt O43497); assay: T-type calcium channel block, whole cell patch clamp in HEK cells (α1G); assay type: cell-based; details: HEK cells, patch clamp, mainly non-inactivated protocol; values above 10 μM shown as 10 μM, below 0.30 μM shown as 0.30 μM; read-out: T-type Calcium Channel Block α1G IC50
T1 construct: expressed in transfected cells; host or cells: HEK 293

[2] = target: T2, human α1H T-type channels (Homo sapiens, UniProt O95180); assay: T-type calcium channel block, whole cell patch clamp in HEK cells (α1H); assay type: cell-based; details: HEK cells, patch clamp, mainly non-inactivated protocol; values above 10 μM shown as 10 μM; read-out: T-type Calcium Channel Block α1H IC50
T2 construct: expressed in transfected cells; host or cells: HEK 293
T2 sequence (O95180 whole entry): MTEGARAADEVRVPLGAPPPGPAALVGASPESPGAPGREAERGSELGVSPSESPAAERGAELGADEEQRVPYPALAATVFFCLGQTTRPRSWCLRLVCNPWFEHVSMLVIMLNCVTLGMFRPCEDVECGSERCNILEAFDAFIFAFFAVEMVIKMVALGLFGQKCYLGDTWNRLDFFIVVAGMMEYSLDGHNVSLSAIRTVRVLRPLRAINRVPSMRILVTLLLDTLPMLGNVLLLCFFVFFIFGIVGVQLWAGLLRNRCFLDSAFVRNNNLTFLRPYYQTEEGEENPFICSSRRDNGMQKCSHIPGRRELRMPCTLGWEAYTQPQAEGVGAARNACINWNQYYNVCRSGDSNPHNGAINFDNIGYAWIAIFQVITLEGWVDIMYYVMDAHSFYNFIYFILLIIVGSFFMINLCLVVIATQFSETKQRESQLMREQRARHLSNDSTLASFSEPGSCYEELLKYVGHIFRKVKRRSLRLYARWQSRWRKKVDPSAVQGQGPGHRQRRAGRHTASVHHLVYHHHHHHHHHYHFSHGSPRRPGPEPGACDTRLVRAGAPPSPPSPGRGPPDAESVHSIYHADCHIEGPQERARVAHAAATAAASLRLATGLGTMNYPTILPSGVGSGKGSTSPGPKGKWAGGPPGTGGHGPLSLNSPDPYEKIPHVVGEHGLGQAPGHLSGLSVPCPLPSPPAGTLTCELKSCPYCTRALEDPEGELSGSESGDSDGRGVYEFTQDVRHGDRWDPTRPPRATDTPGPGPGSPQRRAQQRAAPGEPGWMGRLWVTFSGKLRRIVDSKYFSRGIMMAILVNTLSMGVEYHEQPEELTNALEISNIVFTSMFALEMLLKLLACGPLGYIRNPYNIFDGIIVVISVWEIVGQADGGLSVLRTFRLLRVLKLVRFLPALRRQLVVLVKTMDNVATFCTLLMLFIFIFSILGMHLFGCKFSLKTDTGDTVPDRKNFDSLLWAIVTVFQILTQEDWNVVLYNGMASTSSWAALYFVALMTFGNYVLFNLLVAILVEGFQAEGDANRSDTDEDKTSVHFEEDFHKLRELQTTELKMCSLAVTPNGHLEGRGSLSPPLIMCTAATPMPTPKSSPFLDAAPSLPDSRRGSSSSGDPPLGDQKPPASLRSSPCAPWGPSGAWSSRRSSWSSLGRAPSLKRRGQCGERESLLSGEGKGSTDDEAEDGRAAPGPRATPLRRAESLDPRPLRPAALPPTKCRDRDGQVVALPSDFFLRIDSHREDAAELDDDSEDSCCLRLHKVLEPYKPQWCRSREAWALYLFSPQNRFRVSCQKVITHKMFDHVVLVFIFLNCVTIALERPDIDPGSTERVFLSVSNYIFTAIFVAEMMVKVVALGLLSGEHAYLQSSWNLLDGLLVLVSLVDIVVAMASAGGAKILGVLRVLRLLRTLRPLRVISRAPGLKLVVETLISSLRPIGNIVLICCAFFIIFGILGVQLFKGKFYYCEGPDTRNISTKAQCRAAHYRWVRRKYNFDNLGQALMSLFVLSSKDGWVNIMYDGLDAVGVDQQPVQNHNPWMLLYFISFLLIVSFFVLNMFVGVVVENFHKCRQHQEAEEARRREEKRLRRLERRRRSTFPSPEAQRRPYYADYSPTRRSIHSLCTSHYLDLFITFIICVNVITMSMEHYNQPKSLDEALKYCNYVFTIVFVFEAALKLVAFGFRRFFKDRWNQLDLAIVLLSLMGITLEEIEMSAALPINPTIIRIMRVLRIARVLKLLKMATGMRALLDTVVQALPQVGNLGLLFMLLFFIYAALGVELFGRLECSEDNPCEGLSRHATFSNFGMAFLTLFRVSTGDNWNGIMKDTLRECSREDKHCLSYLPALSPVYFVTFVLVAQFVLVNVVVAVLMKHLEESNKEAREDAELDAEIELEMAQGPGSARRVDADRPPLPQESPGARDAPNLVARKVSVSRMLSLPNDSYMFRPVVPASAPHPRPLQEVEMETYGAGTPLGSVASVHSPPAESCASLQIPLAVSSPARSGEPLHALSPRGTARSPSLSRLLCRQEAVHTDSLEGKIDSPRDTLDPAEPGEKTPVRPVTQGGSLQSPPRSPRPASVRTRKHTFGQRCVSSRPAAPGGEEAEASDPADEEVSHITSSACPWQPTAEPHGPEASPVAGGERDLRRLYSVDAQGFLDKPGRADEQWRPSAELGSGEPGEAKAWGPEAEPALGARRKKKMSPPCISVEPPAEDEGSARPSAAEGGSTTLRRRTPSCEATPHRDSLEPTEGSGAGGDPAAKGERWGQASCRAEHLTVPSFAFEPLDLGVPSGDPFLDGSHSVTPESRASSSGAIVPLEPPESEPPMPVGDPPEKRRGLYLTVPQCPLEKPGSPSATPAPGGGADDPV

T1 sequence (O43497 whole entry): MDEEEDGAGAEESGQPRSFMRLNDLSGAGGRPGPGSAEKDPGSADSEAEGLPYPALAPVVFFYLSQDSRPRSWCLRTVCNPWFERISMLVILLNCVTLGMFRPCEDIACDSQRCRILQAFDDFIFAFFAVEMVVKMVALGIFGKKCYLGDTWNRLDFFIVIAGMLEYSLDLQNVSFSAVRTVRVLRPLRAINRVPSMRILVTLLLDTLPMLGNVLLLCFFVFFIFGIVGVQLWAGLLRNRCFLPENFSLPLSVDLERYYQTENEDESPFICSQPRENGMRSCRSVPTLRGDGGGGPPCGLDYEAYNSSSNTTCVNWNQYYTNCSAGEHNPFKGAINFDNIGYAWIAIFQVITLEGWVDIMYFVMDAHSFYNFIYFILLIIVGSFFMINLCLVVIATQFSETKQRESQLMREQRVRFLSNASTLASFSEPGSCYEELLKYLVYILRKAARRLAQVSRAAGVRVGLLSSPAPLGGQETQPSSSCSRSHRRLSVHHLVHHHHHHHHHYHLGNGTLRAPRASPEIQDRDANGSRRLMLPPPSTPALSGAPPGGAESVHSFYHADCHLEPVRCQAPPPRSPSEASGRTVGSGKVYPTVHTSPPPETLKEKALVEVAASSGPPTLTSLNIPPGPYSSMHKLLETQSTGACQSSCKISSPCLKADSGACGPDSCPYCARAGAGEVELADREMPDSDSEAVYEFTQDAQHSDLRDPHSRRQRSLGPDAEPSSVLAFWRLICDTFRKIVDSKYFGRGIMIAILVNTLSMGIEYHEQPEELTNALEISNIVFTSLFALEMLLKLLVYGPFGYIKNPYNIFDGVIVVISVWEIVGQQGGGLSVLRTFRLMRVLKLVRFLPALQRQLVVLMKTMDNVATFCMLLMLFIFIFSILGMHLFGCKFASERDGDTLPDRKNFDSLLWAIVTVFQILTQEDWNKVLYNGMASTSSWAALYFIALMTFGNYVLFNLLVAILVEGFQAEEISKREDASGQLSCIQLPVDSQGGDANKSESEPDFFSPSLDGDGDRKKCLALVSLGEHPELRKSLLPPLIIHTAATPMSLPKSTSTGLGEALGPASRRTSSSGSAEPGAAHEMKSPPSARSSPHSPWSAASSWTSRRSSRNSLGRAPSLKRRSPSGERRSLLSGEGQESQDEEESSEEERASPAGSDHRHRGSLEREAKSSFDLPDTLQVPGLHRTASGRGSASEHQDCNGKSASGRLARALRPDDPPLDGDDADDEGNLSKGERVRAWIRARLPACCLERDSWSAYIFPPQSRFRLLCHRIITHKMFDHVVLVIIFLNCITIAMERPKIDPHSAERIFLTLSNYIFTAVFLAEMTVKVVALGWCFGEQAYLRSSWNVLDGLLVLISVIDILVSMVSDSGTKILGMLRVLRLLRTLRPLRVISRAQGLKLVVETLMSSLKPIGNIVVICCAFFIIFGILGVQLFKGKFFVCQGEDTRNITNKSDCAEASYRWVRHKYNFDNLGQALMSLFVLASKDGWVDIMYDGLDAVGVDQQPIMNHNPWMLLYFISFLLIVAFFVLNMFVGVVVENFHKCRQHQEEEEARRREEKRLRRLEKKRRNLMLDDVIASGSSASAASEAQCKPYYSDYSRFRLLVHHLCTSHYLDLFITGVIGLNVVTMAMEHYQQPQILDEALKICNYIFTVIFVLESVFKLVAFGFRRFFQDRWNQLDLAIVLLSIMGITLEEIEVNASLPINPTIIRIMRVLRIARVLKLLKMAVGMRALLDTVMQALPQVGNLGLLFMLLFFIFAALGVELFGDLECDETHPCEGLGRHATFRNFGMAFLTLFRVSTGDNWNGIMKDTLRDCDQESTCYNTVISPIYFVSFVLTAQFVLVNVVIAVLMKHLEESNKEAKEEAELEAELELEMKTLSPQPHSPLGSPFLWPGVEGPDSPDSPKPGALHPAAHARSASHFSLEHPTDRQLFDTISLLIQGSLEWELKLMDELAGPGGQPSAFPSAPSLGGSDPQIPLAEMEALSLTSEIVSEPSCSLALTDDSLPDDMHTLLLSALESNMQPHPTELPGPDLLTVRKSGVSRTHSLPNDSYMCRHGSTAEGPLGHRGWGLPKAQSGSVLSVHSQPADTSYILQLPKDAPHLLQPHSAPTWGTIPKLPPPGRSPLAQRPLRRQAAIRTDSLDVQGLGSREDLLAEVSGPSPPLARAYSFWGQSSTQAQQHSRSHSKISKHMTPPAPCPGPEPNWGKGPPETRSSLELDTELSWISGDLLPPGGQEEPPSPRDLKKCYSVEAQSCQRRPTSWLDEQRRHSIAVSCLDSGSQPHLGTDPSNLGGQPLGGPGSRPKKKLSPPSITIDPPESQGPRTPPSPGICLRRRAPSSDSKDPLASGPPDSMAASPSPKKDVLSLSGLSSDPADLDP

IC50 [1] | IC50 [2] | Compound
3.24 µM | 4.05 µM | O=C(NCC1CCN(CCNS(=O)(=O)C(F)(F)F)CC1)c1cc(F)cc(Cl)c1 [Compound 329, 3-chloro-5-fluoro-N-((1-(2-(trifluoromethylsulfonamido)ethyl)piperidin-4-yl)methyl)benzamide]
> 10 µM | > 10 µM | CC(C)NC(=O)CN1CCC(CNC(=O)c2cccc(C(F)(F)F)c2)CC1 [Compound 440, N-((1-(2-(isopropylamino)-2-oxoethyl)piperidin-4-yl)methyl)-3-(trifluoromethyl)benzamide]
3.97 µM | > 10 µM | CC(C)(C)N/C(CN1CCC(CNC(=O)c2cc(F)cc(C(F)(F)F)c2)CC1)=N\C#N [Compound 510, (Z)-N-((1-(2-(tert-butylamino)-2-(cyanoimino)ethyl)piperidin-4-yl)methyl)-3-fluoro-5-(trifluoromethyl) benzamide]
< 0.3 µM | 0.4 µM | CC(C)S(=O)(=O)NCCN1CCC(CNC(=O)c2cc(C(F)(F)F)cc(C(F)(F)F)c2)CC1 [Compound 20, N-((1-(2-(1-methylethylsulfonamido)ethyl)piperidin-4-yl)methyl)-3,5-bis(trifluoromethyl)benzamide]
1.1 µM | 0.42 µM | CN(CCN1CCC(CNC(=O)c2cc(F)cc(C(F)(F)F)c2)CC1)C(=O)CCC(F)(F)F [Compound 517, 3-fluoro-N-((1-(2-(4,4,4-trifluoro-N-methylbutanamido)ethyl)piperidin-4-yl)methyl)-5-(trifluoromethyl)benzamide]
5.36 µM | 1.48 µM | Cc1cc(F)cc(C(=O)NCC2CCN(CC(=O)N3CCC[C@@H]3C(F)(F)F)CC2)c1 [Compound 506, (R)-3-fluoro-5-methyl-N-((1-(2-oxo-2-(2-(trifluoromethyl)pyrrolidin-1-yl)ethyl)piperidin-4-yl)methyl) benzamide]

The next lines start with the compound.

Compound | IC50 [1] | IC50 [2]
CC(C)S(=O)(=O)NCCN1CCC(CNC(=O)c2cccc(Br)c2)CC1 [Compound 386, 3-bromo-N-((1-(2-(1-methylethylsulfonamido)ethyl)piperidin-4-yl)methyl)benzamide] | 0.87 µM | 0.49 µM
CC1CCCCC1NCC(=O)N1CCC(CNC(=O)c2cc(C(F)(F)F)cc(C(F)(F)F)c2)CC1 (centres unmarked) [Compound 248, N-((1-(2-(2-methylcyclohexylamino)acetyl)piperidin-4-yl)methyl)-3,5-bis(trifluoromethyl)benzamide] | < 0.3 µM | 0.48 µM
C[C@@H]1CCCCN1CC(=O)N1CCC(CNC(=O)c2cc(C(F)(F)F)cc(C(F)(F)F)c2)CC1 [Compound 252, (R)-N-((1-(2-(2-methylpiperidin-1-yl)acetyl)piperidin-4-yl)methyl)-3,5-bis(trifluoromethyl)benzamide] | 2.43 µM | 2.34 µM
CC(C)S(=O)(=O)NCCN1CCC(CNC(=O)c2cccc(Cl)c2)CC1 [Compound 236, 3-chloro-N-((1-(2-(1-methylethylsulfonamido)ethyl)piperidin-4-yl)methyl)benzamide] | 0.86 µM | 1.72 µM
CCS(=O)(=O)NC1(CN2CCC(CNC(=O)c3cc(C(F)(F)F)cc(C(F)(F)F)c3)CC2)CCCC1 [Compound 3, N-((1-((1-(ethylsulfonamido)cyclopentyl)methyl)piperidin-4-yl)methyl)-3,5-bis(trifluoromethyl)benzamide] | < 0.3 µM | 0.55 µM
O=C(NCC1CCN(CCNS(=O)(=O)C(F)(F)F)CC1)c1ccc(OC(F)(F)F)cc1 [Compound 389, 4-(trifluoromethoxy)-N-((1-(2-(trifluoromethylsulfonamido)ethyl)piperidin-4-yl)methyl)benzamide] | > 10 µM | > 10 µM
CCC1CCCCN1CC(=O)N1CCC(CNC(=O)c2cc(C(F)(F)F)cc(C(F)(F)F)c2)CC1 (centres unmarked) [Compound 243, N-((1-(2-(2-ethylpiperidin-1-yl)acetyl)piperidin-4-yl)methyl)-3,5-bis(trifluoromethyl)benzamide] | 0.53 µM | 0.81 µM

Reference: patent US8569344B2, “N-piperidinyl acetamide derivatives as calcium channel blockers” (Zalicus Pharmaceuticals Ltd., priority 2008, dated 2013)
